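GI50: concentration for 50% inhibition of growth. TGI: total growth inhibition.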
What was measured:
Assay in all cases: inhibition of tumour cell growth, NCI panel, 384-well format
[1] = test system: COLO 205 colon
[2] = test system: A549 NSCLC
[3] = test system: CAKI-1 renal
[4] = test system: HCT-116 colon
[5] = test system: BT-549 breast
[6] = test system: MDA-MB-468 breast
[7] = test system: SNB-75 CNS
[8] = test system: SF-268 CNS
[9] = test system: K-562 leukemia
[10] = test system: T-47D breast
[11] = test system: OVCAR-8 ovarian
[12] = test system: SNB-19 CNS
[13] = test system: UACC-62 melanoma
[14] = test system: SN12C renal
[15] = test system: SR leukemia
[16] = test system: HS 578T breast
[17] = test system: HL-60(TB) leukemia
[18] = test system: SK-MEL-28 melanoma
[19] = test system: MALME-3M melanoma
[20] = test system: NCI-H522 lung
[21] = test system: SF-539 CNS
[22] = test system: UO-31 renal
[23] = test system: SF-295 CNS
[24] = test system: MCF7 breast
[25] = test system: MDA-MB-231 breast
[26] = test system: OVCAR-3 ovarian
[27] = test system: A498 renal
[28] = test system: PC-3 prostate
[29] = test system: HCC-2998 colon
[30] = test system: IGROV1 ovarian
[31] = test system: HOP-62 NSCLC
[32] = test system: DU-145 prostate
[33] = test system: RPMI-8226 leukemia
[34] = test system: EKVX NSCLC
[35] = test system: HT29 colon
[36] = test system: 786-0 renal
[37] = test system: CCRF-CEM leukemia
[38] = test system: OVCAR-4 ovarian
[39] = test system: LOX IMVI melanoma
[40] = test system: U251 glioblastoma
[41] = test system: NCI/ADR-RES ovarian
[42] = test system: RXF 393 renal
[43] = test system: NCI-H226 lung
[44] = test system: SK-MEL-5 melanoma
[45] = test system: HOP-92 NSCLC
[46] = test system: KM12 colon
[47] = test system: UACC-257 melanoma
[48] = test system: SW-620 colon
[49] = test system: TK-10 renal
[50] = test system: MOLT-4 leukemia
[51] = test system: NCI-H322M lung
[52] = test system: ACHN renal
[53] = test system: NCI-H23 lung
[54] = test system: MDA-MB-435 melanoma
[55] = test system: HCT-15 colon
[56] = test system: SK-OV-3 ovarian
[57] = test system: NCI-H460 NSCLC
[58] = test system: M14 melanoma

`O=C(O)C1(C(=O)O)CCC1.[NH2-].[NH2-].[Pt+2]` showed a GI50 [1] of under 10 nM, a TGI [1] of under 0.01 µM and a GI50 [2] of under 10 nM. It also gave a TGI [2] of under 0.01 µM, a GI50 [3] of under 10 nM and a TGI [3] of under 0.01 µM. The GI50 [4] was under 10 nM, the TGI [4] was under 0.01 µM and the GI50 [5] was under 10 nM. The TGI [5] was under 0.01 µM.
For `Cc1nc(-c2cn3c(n2)-c2ccc(-c4cnn(C(C)(C)C(N)=O)c4)cc2OCC3)n(C(C)C)n1`, the GI50 [6] was 147 nM, the TGI [6] was 1340 nM and the GI50 [7] was 221 nM. The TGI [7] was 15.3 µM, the GI50 [8] was 3.31 µM and the TGI [8] was 29.5 µM. The GI50 [9] was 12.9 µM, the TGI [9] was 84.8 µM and the GI50 [10] was under 10 nM. It also gave a TGI [10] of 39.9 nM, a GI50 [11] of 3.01 µM and a TGI [11] of 84 µM. For the same compound, the GI50 [12] was 13.8 µM, the TGI [12] was over 100 µM and the GI50 [13] was 710 nM. The TGI [13] was 7.5 µM, the GI50 [14] was 270 nM and the TGI [14] was over 100 µM. It also gave a GI50 [15] of 785 nM, a TGI [15] of 2530 nM and a GI50 [1] of 396 nM. For the same compound, the TGI [1] was 25.4 µM, the GI50 [16] was 567 nM and the TGI [16] was 12.5 µM. It also gave a GI50 [17] of under 10 nM, a TGI [17] of 115 nM and a GI50 [18] of 484 nM. It also gave a TGI [18] of over 100 µM, a GI50 [19] of 164 nM and a TGI [19] of 4.21 µM. It also gave a GI50 [2] of 1430 nM, a TGI [2] of 14.7 µM and a GI50 [20] of 3.56 µM. It also gave a TGI [20] of 27.3 µM, a GI50 [3] of 342 nM and a TGI [3] of 31.8 µM. It also gave a GI50 [21] of 1090 nM, a TGI [21] of 20.2 µM and a GI50 [22] of 848 nM. The TGI [22] was over 100 µM, the GI50 [23] was 950 nM and the TGI [23] was 9 µM. It also gave a GI50 [24] of 15.2 nM, a TGI [24] of 15.1 µM and a GI50 [25] of 5.79 µM. The TGI [25] was over 100 µM, the GI50 [26] was 398 nM and the TGI [26] was 9.21 µM. It also gave a GI50 [27] of 1960 nM, a TGI [27] of 12.4 µM and a GI50 [28] of 396 nM. For the same compound, the TGI [28] was 12.2 µM, the GI50 [29] was 831 nM and the TGI [29] was 14 µM. For the same compound, the GI50 [30] was 12.5 nM, the TGI [30] was 54.1 nM and the GI50 [31] was 5.99 µM. It also gave a TGI [31] of 91.3 µM, a GI50 [32] of 2160 nM and a TGI [32] of 17.8 µM. For the same compound, the GI50 [33] was 3.21 µM, the TGI [33] was 13.3 µM and the GI50 [34] was 756 nM. For the same compound, the TGI [34] was 15.4 µM, the GI50 [35] was 85 nM and the TGI [35] was 16.6 µM. For the same compound, the GI50 [36] was 2600 nM, the TGI [36] was 87.3 µM and the GI50 [37] was 343 nM. It also gave a TGI [37] of 13.7 µM, a GI50 [38] of 15.2 µM and a TGI [38] of 93.7 µM. The GI50 [39] was 1990 nM, the TGI [39] was 15.4 µM and the GI50 [40] was 3.56 µM. For the same compound, the TGI [40] was over 100 µM, the GI50 [41] was 13.2 µM and the TGI [41] was 52.7 µM. The GI50 [42] was 1990 nM, the TGI [42] was 11.3 µM and the GI50 [43] was 2820 nM. The TGI [43] was 41 µM, the GI50 [44] was 1260 nM and the TGI [44] was 9.2 µM. It also gave a GI50 [45] of 226 nM, a TGI [45] of 29.9 µM and a GI50 [46] of 3.72 µM. It also gave a TGI [46] of 17 µM, a GI50 [4] of 1920 nM and a TGI [4] of 18.3 µM. It also gave a GI50 [47] of 7.34 µM, a TGI [47] of 40.7 µM and a GI50 [48] of 12.5 µM. It also gave a TGI [48] of over 100 µM, a GI50 [49] of 387 nM and a TGI [49] of 19.2 µM. For the same compound, the GI50 [50] was 74.6 nM, the TGI [50] was 1120 nM and the GI50 [5] was 1670 nM. It also gave a TGI [5] of 19.9 µM, a GI50 [51] of 312 nM and a TGI [51] of 14.2 µM. For the same compound, the GI50 [52] was 1360 nM, the TGI [52] was over 100 µM and the GI50 [53] was 11.3 µM. The TGI [53] was 50.5 µM, the GI50 [54] was 6.33 µM and the TGI [54] was 53.2 µM. It also gave a GI50 [55] of 1590 nM, a TGI [55] of 23.6 µM and a GI50 [56] of 29.1 nM. It also gave a TGI [56] of 1950 nM, a GI50 [57] of 134 nM and a TGI [57] of 11.4 µM. The GI50 [58] was 7.41 µM and the TGI [58] was 32.1 µM.

Reference: PubChem BioAssay (NCI)
